# Experiments:
# [1] = target: T1, recombinant full-length human PDE2A protein (Homo sapiens, UniProt O00408); assay: In vitro evaluation on inhibition activities of PDE2 phosphodiesterase (fluorescence polarization, Transcreener AMP2/GMP2); assay type: biochemical; settings: substrate 1 μM cGMP
# T1 construct: A recombinant full-length human PDE2A protein; GST (N); made in house; host or cells: Sf9 insect cells (baculovirus)
# Experimental: Experimental objective: the concentrations of AMP/GMP generated in the reaction system was detected by detecting a substituted AlexaFluor 633 fluorochrome on AMP/GMP antibodies through fluorescence polarization analysis, and IC50 of PDE2 phosphodiesterase against compound to be detected was calculated.
# Buffer solution for determination: 10 mM Tris-HCl, pH 7.5, 5 mM MgCl2, 0.01% Brij 35, 1 mM DTT, and 1% DMSO.
# Enzyme: A recombinant full-length human PDE2A protein was expressed by baculovirus in Sf9 insect cells using an N-terminal GST tag
# Transcreener® AMP^2/GMP^2 antibody, AMP2/GMP2 AlexaFluor 633 fluorochrome
# An enzyme solution was prepared from a freshly prepared buffer solution, and then added to a reaction cavity, a DMSO solution of compound to-be-detected was added through an Echo550 contactless nanoliter pipetting system, and then the resulting solution was preincubated for 10 min at room temperature. A substrate (1 μM cGMP) was added to initiate reaction, which was kept at room temperature for 1 h. […] Fluorescence polarization was detected using Ex/Em 620/688.
# Fluorescence polarization intensity was converted to nM concentration through AMP/GMP standard curves, then relative enzymatic activity inhibition was calculated compared with DMSO blank control, and IC50 and curve thereof was calculated using Prism software package (GraphPad Software, San Diego Calif., USA).
# [2] = tested on: LPS-induced TNF-α; assay: In vitro influence of compound on LPS-induced TNF-α in blood (ELISA); assay type: cell-based, Sprague Dawley rats; settings: rat blood, compound 100 uM, 5 h
# Experimental: Experimental objective: to detect the influence of compound on LPS-induced TNF-α in blood of […] in vitro, and to evaluate inhibiting effects of the compound on LPS-induced TNF-α in blood of […].
# Sprague Dawley rats (male, 210-260 g, 8-10 weeks old, Shanghai SLAC)
# Rat TNF-alpha Quantikine ELISA Kit (R&D, #SRTA00)
# The solution of compound to-be-detected at a concentration of 1 mM was prepared, and 40 μL (final concentration of the compound: 100 uM) was respectively added to a 48-well cell culture plate. After rats were anesthetized with isoflurane, blood samples were collected from their hearts (heparin anticoagulation). The blood was added to the to-be-detected compound present in the 48-well plate with 320 μL/well. The 48-well plate was incubated in a cell incubator for 30 min. Then 40 μL of LPS solution (100 ug/ml) was added, and fully mixed. The plate was further incubated in the incubator. 5 h later, the 48-well plate was taken out. The blood samples were transferred to 1.5 ml centrifuge tubes, and centrifuged in a centrifuge (4,500 rpm, 4° C., 5 minutes). The supernatant was separated to obtain blood plasma, which was subpackaged, quickly frozen, and kept in a refrigerator at −80° C. On the next day, the TNF-α levels in blood plasma samples were detected using an R&D ELISA kit.
# [3] = Evaluation on pharmacokinetics of compound in SD rats; assay type: in vivo; settings: male, Sprague-Dawley, rat, plasma; for clearance / AUC / half-life: single intravenous injection and oral administration; for clearance: read-out: Clearance rate; for AUC: read-out: Concentration integral AUC; for half-life: read-out: Half life T1/2 (converted)
# Experimental: Experimental objective: To test the pharmacokinetics of a compound in SD rats
# Experimental materials: Sprague Dawley rats (male, 200-300 g, 7-9 weeks old, Shanghai SLAC)
# Pharmacokinetic characteristics of rodents after intravenous injection and oral administration of the compound were tested using a standard scheme. In the experiment, a candidate compound was prepared into a clear solution, which was administrated to rats by single intravenous injection and oral administration. The solvent for intravenous injection and oral administration is water solution or normal saline solution of hydroxypropyl 3 cyclodextrin at a certain proportion. A whole blood sample was collected within 24 hours, and 3000 g of the sample was centrifuged for 15 minutes. The supernatant was separated to obtain blood plasma samples, to which 4 times volume of an acetonitrile solution containing an internal standard substance was added to precipitate protein. After centrifuging, the supernatant was collected, equivalent volume of water was added, the resulting solution was recentrifuged, and the supernatant was collected for sample injection. The blood concentration was quantitatively analyzed by LC-MS/MS, and the pharmacokinetic parameters were calculated, such as peak concentration, time to peak, clearance rate, half life, area under the curve and bioavailability.
# [4] = Solubility of crystal form A in different solvents; assay type: physicochemical; settings: thermodynamic from solid, room temperature
# Experimental: About 2 mg of crystal form A was weighed put in a 1.5 mL liquid phase vial, to which the following solvents were respectively added by pipettes by stages to dissolve the crystal form A while manually vibrating.
# [5] = Stability test of crystal form A solid (accelerated, 40° C./75% humidity, open); assay type: physicochemical
# Experimental: A crystal form A was put in an open container at a constant temperature and humidity for accelerated test respectively at 40° C./75% humidity (open). Samples were collected in 1st, 2nd and 3rd months and tested, and the test results were compared with the initial test results on 0th day.
# [6] = 40° C./75% humidity (open), 1 month
# [7] = 40° C./75% humidity (open), 2 months
# [8] = 40° C./75% humidity (open), 3 months
# T1 sequence (O00408 whole entry): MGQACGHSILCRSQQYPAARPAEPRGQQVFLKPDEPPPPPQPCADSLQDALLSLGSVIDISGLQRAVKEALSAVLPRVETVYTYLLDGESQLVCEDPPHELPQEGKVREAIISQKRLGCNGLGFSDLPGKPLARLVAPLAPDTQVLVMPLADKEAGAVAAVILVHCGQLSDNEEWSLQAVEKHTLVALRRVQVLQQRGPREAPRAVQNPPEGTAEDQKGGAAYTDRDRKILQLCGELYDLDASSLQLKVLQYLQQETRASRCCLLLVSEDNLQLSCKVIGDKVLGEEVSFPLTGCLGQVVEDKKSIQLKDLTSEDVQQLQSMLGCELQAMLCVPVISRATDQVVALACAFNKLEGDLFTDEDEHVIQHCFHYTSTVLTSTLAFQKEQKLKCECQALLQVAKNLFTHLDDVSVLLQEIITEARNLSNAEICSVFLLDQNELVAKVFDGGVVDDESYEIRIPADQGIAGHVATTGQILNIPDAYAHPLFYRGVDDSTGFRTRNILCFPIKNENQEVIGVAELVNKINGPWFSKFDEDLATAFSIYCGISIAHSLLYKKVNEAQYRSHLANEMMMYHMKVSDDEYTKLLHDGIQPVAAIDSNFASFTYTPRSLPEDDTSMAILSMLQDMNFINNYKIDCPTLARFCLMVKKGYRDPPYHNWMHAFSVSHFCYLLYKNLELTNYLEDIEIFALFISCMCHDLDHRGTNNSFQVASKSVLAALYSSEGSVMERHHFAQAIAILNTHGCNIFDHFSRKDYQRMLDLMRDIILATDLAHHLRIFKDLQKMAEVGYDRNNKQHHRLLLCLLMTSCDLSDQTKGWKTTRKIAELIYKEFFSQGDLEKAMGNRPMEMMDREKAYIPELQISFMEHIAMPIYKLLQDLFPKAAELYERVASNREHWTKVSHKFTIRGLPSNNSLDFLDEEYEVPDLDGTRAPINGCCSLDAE
compound,measurement,setting,value
"Cn1c(=O)n(C[C@H]2CC[C@@](C)(O)CC2)c(=O)c2c1ncn2CC1CC1 [Compound (I), 7-(cyclopropylmethyl)-1-(((cis)-4-hydroxy-4-methylcyclohexyl)methyl)-3-methyl-1H-purine-2,6-(3H, 7H)-dione]",IC50,[1],1 to 10 µM
same,TNF-α Inhibition Ratio,[2],++ (80% ≤ “++” < 100%)
same,bioavailability,"[3]; oral administration, read-out: Bioavailability F",47.9%
same,clearance,[3],54.4 mL/min/kg
same,AUC,[3],4.39 µM·h
same,half-life,[3],47.6 min
"Cn1c(=O)n(C[C@H]2CC[C@@](C)(O)CC2)c(=O)c2c1ncn2CC1CC1 [Crystal Form A, 7-(cyclopropylmethyl)-1-(((cis)-4-hydroxy-4-methylcyclohexyl)methyl)-3-methyl-1H-purine-2,6-(3H, 7H)-dione]",solubility,"[4]; aqueous with cosolvent or surfactant or cyclodextrin, Acetone-water (1:2)",~1 mg/mL
same,solubility,"[4]; aqueous with cosolvent or surfactant or cyclodextrin, Acetonitrile-water (1:1)",~22.2 mg/mL
same,solubility,"[4]; aqueous with cosolvent or surfactant or cyclodextrin, Ethanol-water (1:1)",~16.3 mg/mL
same,solubility,"[4]; aqueous with cosolvent or surfactant or cyclodextrin, Ethanol-water (3:1)",~24.5 mg/mL
same,solubility,"[4]; aqueous with cosolvent or surfactant or cyclodextrin, Isopropanol-water (1:1)",~17.3 mg/mL
same,solubility,"[4]; aqueous with cosolvent or surfactant or cyclodextrin, Methanol-water (1:1)",~7.8 mg/mL
same,solubility,"[4]; aqueous with cosolvent or surfactant or cyclodextrin, Methanol-water (3:1)",~19 mg/mL
same,solubility,"[4]; organic solvent or mixture, 2-methyltetrahydrofuran",~24.2 mg/mL
same,solubility,"[4]; organic solvent or mixture, Acetone",~17.2 mg/mL
same,solubility,"[4]; organic solvent or mixture, Acetonitrile",~13 mg/mL
same,solubility,"[4]; organic solvent or mixture, Butanone",~37.2 mg/mL
same,solubility,"[4]; organic solvent or mixture, Cyclohexane",< 1 mg/mL
same,solubility,"[4]; organic solvent or mixture, Dioxane",> 57 mg/mL
same,solubility,"[4]; organic solvent or mixture, Ethanol",~11.2 mg/mL
same,solubility,"[4]; organic solvent or mixture, Ethyl acetate",~15.2 mg/mL
same,solubility,"[4]; organic solvent or mixture, Isopropanol",~10.1 mg/mL
same,solubility,"[4]; organic solvent or mixture, Isopropyl acetate",~12 mg/mL
same,solubility,"[4]; organic solvent or mixture, Methanol",~28.7 mg/mL
same,solubility,"[4]; organic solvent or mixture, Methyl isobutyl ketone",~10.9 mg/mL
same,solubility,"[4]; organic solvent or mixture, Methyl tertiary butyl ether",~2.6 mg/mL
same,solubility,"[4]; organic solvent or mixture, Methylbenzene",< 1 mg/mL
same,solubility,"[4]; organic solvent or mixture, Tetrahydrofuran",> 67 mg/mL
same,solubility,"[4]; organic solvent or mixture, n-butanol",~20.5 mg/mL
same,solubility,"[4]; organic solvent or mixture, n-heptane",< 1 mg/mL
same,solubility,[4]; Water,< 1 mg/mL
same,Appearance,[5]; [6],White powder
same,Content,[5]; [6],101.4%
same,Total Impurities,[5]; [6],0.31%
same,Appearance,[5]; [7],White powder
same,Content,[5]; [7],98.8%
same,Total Impurities,[5]; [7],0.34%
same,Appearance,[5]; [8],White powder
same,Content,[5]; [8],101.8%
same,Total Impurities,[5]; [8],0.32%
same,Appearance,"[5]; Initial, 0 month",White powder
same,Content,"[5]; Initial, 0 month",101.6%
same,Total Impurities,"[5]; Initial, 0 month",0.33%
"CC(=O)CCCCn1c(=O)c2c(ncn2C)n(C)c1=O [Pentoxifylline, reference compound]",clearance,[3],74.1 mL/min/kg
same,AUC,[3],6.62 µM·h
same,half-life,[3],11.5 min
